Results on 15 compounds are retold here after ChEMBL document CHEMBL5393457, “Combined inhibition of amino acid transporters for inhibiting human plasmacytoid dendritic cell activity during autoimmunity” (2022).

SMILES strings stand for the structures. The source made the active and inactive calls. No cut-off for these calls is given here. Bounds are passed on as bounds.

Test [1] has as its target Large neutral amino acids transporter small subunit 1 (Homo sapiens) (UniProt Q01650). The test is described as follows: Inhibition of human LAT1 at 100 uM relative to control.
Test [2] has as its system Plasmacytoid dendritic cell. As to the kind of experiment: Inhibition of SLC7A5/SLC3A2 in CpG-A-stimulated human plasmacytoid dendritic cells at 10 uM assessed as decrease in kynurenine transport. The test is classed as cell-based.
Test [3] addresses Tyrosine-protein kinase JAK2 (Homo sapiens) (UniProt O60674). As to the kind of experiment: Inhibition of JAK2 in TLR9-activated human plasmacytoid dendritic cells at 20 nM assessed as decrease in CpG-A stimulated SLC7A11 expression. Conditions: Plasmacytoid dendritic cell. The test is classed as cell-based.
Test [4] shares this target. As to the kind of experiment: Inhibition of JAK2 in IL3- and CpG-A-activated human plasmacytoid dendritic cells at 20 nM assessed as decrease in ENPP2/IFNA2 expression. The test is classed as cell-based. As to conditions: Plasmacytoid dendritic cell.
For test [5] the target is unchanged. As to the kind of experiment: Inhibition of JAK2 in IL3- and CpG-A-activated human plasmacytoid dendritic cells at 20 nM assessed as decrease in MYO1E/IFNA2 expression. As to conditions: Plasmacytoid dendritic cell. It counts as cell-based.
Test [6] concerns the target T1, mTORC1 (Homo sapiens) (UniProt P42345+Q8N122+Q9BVC4). Conditions: Plasmacytoid dendritic cell, dose 20.0 nM.
Description: Inhibition of mTORC1 in CpG-A-stimulated human plasmacytoid dendritic cells at 20 nM assessed as decrease in lactate release
The target in test [7] is T1, mTORC1 (Homo sapiens). Conditions: Plasmacytoid dendritic cell, dose 250.0 nM.
Description: Inhibition of mTORC1 in CpG-A-stimulated human plasmacytoid dendritic cells at 250 nM assessed as decrease in lactate release
Test [8] concerns Plasmacytoid dendritic cell. As to the kind of experiment: Inhibition of F1F0-ATP synthase in human plasmacytoid dendritic cells at 1 uM assessed as decrease in IFN-alpha production. The test is classed as cell-based.
In test [9] the test system is Plasmacytoid dendritic cell. As to the kind of experiment: Inhibition of F1F0-ATP synthase in human plasmacytoid dendritic cells at 1 uM assessed as decrease in TNF production. It counts as cell-based.
Test [10] deals with Plasmacytoid dendritic cell. The test is described as follows: Inhibition of F1F0-ATP synthase in CpG-A-stimulated human plasmacytoid dendritic cells at 1 uM assessed as reduction in IFN-alpha production in presence of 10 uM heptelidic acid. It counts as cell-based.
Test [11] concerns Plasmacytoid dendritic cell. The test is described as follows: Inhibition of F1F0-ATP synthase in CpG-A-stimulated human plasmacytoid dendritic cells at 1 uM assessed as reduction in TNF production in presence of 10 uM heptelidic acid. The test is classed as cell-based.
Test [12] deals with T2, Cystine/glutamate transporter (Homo sapiens) (UniProt Q9UPY5).
T2 sequence (whole entry): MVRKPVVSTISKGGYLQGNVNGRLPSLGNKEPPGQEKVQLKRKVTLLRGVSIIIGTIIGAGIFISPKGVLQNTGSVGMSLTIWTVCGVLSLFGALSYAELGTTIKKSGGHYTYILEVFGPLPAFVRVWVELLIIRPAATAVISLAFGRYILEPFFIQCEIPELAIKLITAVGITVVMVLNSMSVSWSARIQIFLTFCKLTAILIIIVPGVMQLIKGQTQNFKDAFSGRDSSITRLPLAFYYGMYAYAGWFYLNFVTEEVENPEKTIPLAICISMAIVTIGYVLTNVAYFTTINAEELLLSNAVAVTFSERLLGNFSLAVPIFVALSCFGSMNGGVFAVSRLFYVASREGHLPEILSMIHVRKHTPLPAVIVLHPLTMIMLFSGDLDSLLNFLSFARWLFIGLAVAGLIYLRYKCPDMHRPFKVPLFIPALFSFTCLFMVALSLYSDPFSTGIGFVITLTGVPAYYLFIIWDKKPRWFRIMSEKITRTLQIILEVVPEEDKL
As to the kind of experiment: Inhibition of XCT in CpG-A-activated human plasmacytoid dendritic cells at 25 to 100 uM assessed as decrease in TNF production in presence of 100 uM sulfasalazine. It counts as cell-based. Conditions: Plasmacytoid dendritic cell, dose 25-100 µM.

The target in test [13] is Tyrosine-protein kinase JAK2 (Homo sapiens) (UniProt O60674). As to the kind of experiment: Inhibition of JAK2 in CpG-A and GM-CSF-activated human plasmacytoid dendritic cells at 1 uM assessed as decrease in kynurenine uptake. The test is classed as cell-based. Conditions: Plasmacytoid dendritic cell.
Chain of Tyrosine-protein kinase JAK2 (Homo sapiens) (O60674 whole entry): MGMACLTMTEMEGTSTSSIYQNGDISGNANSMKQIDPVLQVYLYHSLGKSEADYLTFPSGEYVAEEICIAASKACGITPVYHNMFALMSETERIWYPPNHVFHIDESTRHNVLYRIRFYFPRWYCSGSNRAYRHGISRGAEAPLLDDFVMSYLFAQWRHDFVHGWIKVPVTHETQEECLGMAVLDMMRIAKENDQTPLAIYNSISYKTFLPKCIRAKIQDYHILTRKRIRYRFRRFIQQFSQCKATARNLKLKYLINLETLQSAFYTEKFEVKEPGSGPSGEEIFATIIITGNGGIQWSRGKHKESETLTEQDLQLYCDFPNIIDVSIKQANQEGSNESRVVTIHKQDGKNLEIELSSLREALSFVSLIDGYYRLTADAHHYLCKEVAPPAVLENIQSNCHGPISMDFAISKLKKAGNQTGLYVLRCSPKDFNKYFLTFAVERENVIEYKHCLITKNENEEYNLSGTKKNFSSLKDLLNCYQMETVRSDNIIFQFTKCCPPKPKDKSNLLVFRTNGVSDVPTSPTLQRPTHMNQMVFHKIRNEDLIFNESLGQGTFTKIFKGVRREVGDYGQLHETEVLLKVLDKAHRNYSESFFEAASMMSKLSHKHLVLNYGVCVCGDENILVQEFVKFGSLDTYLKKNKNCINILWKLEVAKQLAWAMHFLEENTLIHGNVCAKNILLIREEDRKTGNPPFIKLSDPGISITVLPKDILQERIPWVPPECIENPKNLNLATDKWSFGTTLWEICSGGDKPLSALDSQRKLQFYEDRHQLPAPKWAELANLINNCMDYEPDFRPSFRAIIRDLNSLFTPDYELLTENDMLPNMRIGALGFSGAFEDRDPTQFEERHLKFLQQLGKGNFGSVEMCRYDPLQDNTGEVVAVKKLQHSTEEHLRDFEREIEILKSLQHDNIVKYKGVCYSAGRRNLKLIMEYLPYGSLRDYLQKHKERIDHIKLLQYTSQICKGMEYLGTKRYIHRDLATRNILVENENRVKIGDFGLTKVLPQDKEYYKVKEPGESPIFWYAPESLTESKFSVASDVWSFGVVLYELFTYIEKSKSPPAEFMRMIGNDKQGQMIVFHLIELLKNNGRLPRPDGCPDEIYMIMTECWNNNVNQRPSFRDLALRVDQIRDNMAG
Test [14] shares this target. The test is described as follows: Inhibition of JAK2 in CpG-A and GM-CSF-activated human plasmacytoid dendritic cells at 1 uM assessed as decrease in mTORC1 activity. The test is classed as cell-based. As to conditions: Plasmacytoid dendritic cell.
The target is the same in test [15]. As to the kind of experiment: Inhibition of JAK2 in CpG-A and GM-CSF-activated human plasmacytoid dendritic cells at 1 uM assessed as decrease in IFN-alpha production. The test is classed as cell-based. Conditions: Plasmacytoid dendritic cell.
For test [16] the target is unchanged. As to the kind of experiment: Inhibition of JAK2 in CpG-A and GM-CSF-activated human plasmacytoid dendritic cells at 1 uM assessed as decrease in TNF production. It counts as cell-based. As to conditions: Plasmacytoid dendritic cell.
Test [17] deals with Glyceraldehyde-3-phosphate dehydrogenase (Homo sapiens) (UniProt P04406). As to the kind of experiment: Inhibition of GAPDH in CpG-A-stimulated human plasmacytoid dendritic cells at 10 uM assessed as reduction in secreted lactate levels. The test is classed as cell-based. Conditions: Plasmacytoid dendritic cell.
Chain of Glyceraldehyde-3-phosphate dehydrogenase (Homo sapiens) (P04406 2-335 limits assumed): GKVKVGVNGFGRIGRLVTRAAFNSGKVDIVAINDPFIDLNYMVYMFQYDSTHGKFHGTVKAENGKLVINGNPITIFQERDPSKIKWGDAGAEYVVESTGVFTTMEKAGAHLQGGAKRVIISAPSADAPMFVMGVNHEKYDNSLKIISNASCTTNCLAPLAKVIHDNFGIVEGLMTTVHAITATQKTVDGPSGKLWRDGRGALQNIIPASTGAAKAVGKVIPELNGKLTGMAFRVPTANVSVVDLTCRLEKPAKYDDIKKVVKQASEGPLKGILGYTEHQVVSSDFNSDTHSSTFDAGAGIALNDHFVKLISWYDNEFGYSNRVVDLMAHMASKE
Test [18] shares this target. The test is described as follows: Inhibition of GAPDH in CpG-A-stimulated human plasmacytoid dendritic cells at 10 uM assessed as reduction in overall protein synthesis. As to conditions: Plasmacytoid dendritic cell. It counts as cell-based.
Test [19] shares this target. As to the kind of experiment: Inhibition of GAPDH in CpG-A-stimulated human plasmacytoid dendritic cells at 10 uM assessed as reduction in IFNa-alpha production. The test is classed as cell-based. As to conditions: Plasmacytoid dendritic cell.
For test [20] the target is unchanged. As to the kind of experiment: Inhibition of GAPDH in CpG-A-stimulated human plasmacytoid dendritic cells at 10 uM assessed as reduction in TNF production. It counts as cell-based. As to conditions: Plasmacytoid dendritic cell.
Test [21] shares this target. As to the kind of experiment: Inhibition of GAPDH in CpG-A-stimulated human plasmacytoid dendritic cells at 10 uM assessed as reduction in IFN-alpha production in presence of 1 uM oligomycin. It counts as cell-based. As to conditions: Plasmacytoid dendritic cell.
For test [22] the target is unchanged. The test is described as follows: Inhibition of GAPDH in CpG-A-stimulated human plasmacytoid dendritic cells at 10 uM assessed as reduction in TNF production in presence of 1 uM oligomycin. It counts as cell-based. As to conditions: Plasmacytoid dendritic cell.
In test [23] the test system is Plasmacytoid dendritic cell. As to the kind of experiment: Inhibition of mTORC1/mTORC2 in CpG-A and IL-3-activated human plasmacytoid dendritic cells at 200 ng/mL assessed as decrease in SLC7A5 expression. The test is classed as cell-based.
Test [24] deals with Plasmacytoid dendritic cell. The test is described as follows: Inhibition of mTORC1/mTORC2 in CpG-A and IL-3-activated human plasmacytoid dendritic cells at 200 ng/mL assessed as decrease in SLC3A2 expression. It counts as cell-based.
Test [25] has as its system Plasmacytoid dendritic cell. As to the kind of experiment: Inhibition of mTORC1/mTORC2 in CpG-A and IL-3-activated human plasmacytoid dendritic cells at 200 ng/mL assessed as decrease in IFN-alpha production. It counts as cell-based.
Test [26] deals with Plasmacytoid dendritic cell. The test is described as follows: Inhibition of mTORC1/mTORC2 in CpG-A and IL-3-activated human plasmacytoid dendritic cells at 200 ng/mL assessed as decrease in TNF production. The test is classed as cell-based.
Test [27] relates to Plasmacytoid dendritic cell. As to the kind of experiment: Inhibition of mTORC1/mTORC2 in TLR9-activated human plasmacytoid dendritic cells at 1 uM assessed as decrease in CpG-A stimulated SLC7A11 expression. It counts as cell-based.
Test [28] concerns Plasmacytoid dendritic cell. As to the kind of experiment: Inhibition of mTORC1/mTORC2 in IL-3 and CpG-A-activated human plasmacytoid dendritic cells at 200 nM assessed as decrease in decrease in ENPP2/IFNA2 expression. The test is classed as cell-based.
The test system of test [29] is Plasmacytoid dendritic cell. As to the kind of experiment: Inhibition of mTORC1/mTORC2 in IL-3 and CpG-A-activated human plasmacytoid dendritic cells at 200 nM assessed as decrease in decrease in MYO1E/IFNA2 expression. The test is classed as cell-based.
The target in test [30] is T3, Signal transducer and activator of transcription 5A (Homo sapiens) (UniProt P42229).
T3 sequence (whole entry): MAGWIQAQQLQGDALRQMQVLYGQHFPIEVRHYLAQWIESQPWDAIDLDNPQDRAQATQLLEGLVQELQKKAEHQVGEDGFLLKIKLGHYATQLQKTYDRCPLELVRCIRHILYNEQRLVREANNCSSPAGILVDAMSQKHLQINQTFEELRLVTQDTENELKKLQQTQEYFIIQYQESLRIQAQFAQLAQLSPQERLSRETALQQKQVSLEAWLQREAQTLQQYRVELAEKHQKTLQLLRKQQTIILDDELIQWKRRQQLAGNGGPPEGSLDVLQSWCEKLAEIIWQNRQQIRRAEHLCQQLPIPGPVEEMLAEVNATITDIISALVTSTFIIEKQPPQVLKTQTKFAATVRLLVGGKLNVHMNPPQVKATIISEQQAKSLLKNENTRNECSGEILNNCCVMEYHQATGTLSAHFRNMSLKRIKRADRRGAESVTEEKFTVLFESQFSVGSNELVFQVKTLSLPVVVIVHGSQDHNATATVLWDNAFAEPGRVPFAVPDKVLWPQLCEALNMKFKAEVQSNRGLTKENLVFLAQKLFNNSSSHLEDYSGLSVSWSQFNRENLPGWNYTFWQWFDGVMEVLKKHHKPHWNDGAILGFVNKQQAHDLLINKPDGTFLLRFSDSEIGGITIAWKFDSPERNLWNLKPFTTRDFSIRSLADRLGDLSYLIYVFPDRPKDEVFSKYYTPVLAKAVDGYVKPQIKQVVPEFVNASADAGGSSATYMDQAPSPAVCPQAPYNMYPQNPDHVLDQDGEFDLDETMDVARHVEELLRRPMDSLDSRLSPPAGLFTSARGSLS
As to the kind of experiment: Inhibition of STAT5 in IL-3 and CpG-A-stimulated human plasmacytoid dendritic cells at 1 to 2 uM assessed as decrease in IFN-alpha production in presence of 100 uM sulfasalazine. Conditions: Plasmacytoid dendritic cell, dose 1-2 µM. It counts as cell-based.

The target in test [31] is T3, Signal transducer and activator of transcription 5A (Homo sapiens). As to the kind of experiment: Inhibition of STAT5 in IL-3 and CpG-A-stimulated human plasmacytoid dendritic cells at 1 to 2 uM assessed as decrease in TNF production in presence of 100 uM sulfasalazine. The test is classed as cell-based. As to conditions: Plasmacytoid dendritic cell, dose 1-2 µM.

Chain of Large neutral amino acids transporter small subunit 1 (Homo sapiens) (Q01650 whole entry): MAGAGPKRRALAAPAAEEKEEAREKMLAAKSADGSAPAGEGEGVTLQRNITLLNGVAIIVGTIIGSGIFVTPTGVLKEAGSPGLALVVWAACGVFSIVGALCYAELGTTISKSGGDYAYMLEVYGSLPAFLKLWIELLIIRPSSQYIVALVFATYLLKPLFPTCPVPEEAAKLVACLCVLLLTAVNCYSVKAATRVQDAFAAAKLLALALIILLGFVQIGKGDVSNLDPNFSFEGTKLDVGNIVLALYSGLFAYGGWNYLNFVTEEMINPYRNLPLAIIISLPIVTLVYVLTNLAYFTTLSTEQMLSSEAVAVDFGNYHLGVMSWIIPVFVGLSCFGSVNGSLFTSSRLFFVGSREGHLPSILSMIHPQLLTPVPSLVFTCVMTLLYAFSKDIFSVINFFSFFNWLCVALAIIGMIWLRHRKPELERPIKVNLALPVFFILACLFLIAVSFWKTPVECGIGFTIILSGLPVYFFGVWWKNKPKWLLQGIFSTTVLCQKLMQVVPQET
T1 sequence (Q8N122 whole entry, looked up, other chains not shown): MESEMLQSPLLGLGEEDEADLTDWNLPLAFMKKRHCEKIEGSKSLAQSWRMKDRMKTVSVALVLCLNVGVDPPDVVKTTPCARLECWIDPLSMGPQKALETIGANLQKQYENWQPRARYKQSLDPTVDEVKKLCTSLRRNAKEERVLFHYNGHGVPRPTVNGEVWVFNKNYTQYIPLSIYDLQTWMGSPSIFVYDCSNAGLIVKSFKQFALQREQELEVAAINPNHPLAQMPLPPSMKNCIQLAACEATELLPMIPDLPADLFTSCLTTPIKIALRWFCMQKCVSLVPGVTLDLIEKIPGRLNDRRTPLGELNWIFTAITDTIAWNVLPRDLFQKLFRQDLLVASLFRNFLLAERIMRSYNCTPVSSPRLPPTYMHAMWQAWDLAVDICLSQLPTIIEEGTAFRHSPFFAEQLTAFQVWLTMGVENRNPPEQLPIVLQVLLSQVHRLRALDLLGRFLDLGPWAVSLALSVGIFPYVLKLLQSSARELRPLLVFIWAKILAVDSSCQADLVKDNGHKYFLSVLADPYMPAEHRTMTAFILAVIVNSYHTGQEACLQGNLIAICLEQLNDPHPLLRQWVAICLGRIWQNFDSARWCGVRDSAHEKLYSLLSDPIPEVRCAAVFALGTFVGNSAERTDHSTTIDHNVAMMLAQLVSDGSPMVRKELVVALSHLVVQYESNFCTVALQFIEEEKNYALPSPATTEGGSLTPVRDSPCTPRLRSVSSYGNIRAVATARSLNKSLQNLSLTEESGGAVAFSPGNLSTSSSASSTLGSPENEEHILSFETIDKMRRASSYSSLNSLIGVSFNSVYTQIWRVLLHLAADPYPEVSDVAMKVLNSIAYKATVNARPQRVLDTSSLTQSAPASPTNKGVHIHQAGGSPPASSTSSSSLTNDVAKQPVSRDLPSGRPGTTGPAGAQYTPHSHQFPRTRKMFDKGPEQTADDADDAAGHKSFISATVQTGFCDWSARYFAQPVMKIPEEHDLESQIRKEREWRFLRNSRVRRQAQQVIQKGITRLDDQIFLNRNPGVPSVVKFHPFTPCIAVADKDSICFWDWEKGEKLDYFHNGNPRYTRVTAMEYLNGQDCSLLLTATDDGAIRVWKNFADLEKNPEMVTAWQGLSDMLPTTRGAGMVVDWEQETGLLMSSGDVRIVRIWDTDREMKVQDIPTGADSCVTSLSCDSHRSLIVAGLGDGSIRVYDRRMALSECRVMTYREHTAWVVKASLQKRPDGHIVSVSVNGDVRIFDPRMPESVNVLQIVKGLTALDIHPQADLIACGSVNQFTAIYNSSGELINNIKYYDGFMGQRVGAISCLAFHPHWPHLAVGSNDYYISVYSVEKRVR
T1 sequence (Q9BVC4 whole entry, looked up, other chains not shown): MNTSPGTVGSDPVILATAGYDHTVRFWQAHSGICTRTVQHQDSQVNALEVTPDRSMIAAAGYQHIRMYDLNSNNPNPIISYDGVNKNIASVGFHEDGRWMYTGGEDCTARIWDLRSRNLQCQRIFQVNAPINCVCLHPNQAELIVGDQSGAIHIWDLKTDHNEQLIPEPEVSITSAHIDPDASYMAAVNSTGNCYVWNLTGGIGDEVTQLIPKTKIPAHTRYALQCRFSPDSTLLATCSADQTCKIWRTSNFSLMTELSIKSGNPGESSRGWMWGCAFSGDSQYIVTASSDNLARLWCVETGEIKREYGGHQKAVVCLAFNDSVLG

A word on the inhibition: it is the percentage by which the read-out fell short of the control. Regarding `N#Cc1c(Br)cccc1/N=c1\ssnc1Cl`, the inhibition in [1] is > 90%.
Turning to `NC1(C(=O)O)CC2CCC1C2` (stereo not drawn), the inhibition entry in test [2] was “Active”.
In the case of `CO[C@H]1CC2CC[C@@H](C)[C@@](O)(O2)C(=O)C(=O)N2CCCC[C@H]2C(=O)O[C@H]([C@H](C)C[C@@H]2CC[C@@H](O)[C@H](OC)C2)CC(=O)[C@H](C)/C=C(\C)[C@@H](O)[C@@H](OC)C(=O)[C@H](C)C[C@H](C)/C=C/C=C/C=C/1C`, the inhibition entry (in test [3]; in [4]; in [5]; on mTORC1 (Homo sapiens) [6]; at mTORC1 (Homo sapiens) [7]) was “Active” each time.
For the compound `CC[C@H]1/C=C/C=C/C[C@@H](C)[C@H](O)[C@@](C)(O)C(=O)[C@@H](C)[C@H](O)[C@@H](C)C(=O)[C@@H](C)[C@H](O)[C@@H](C)/C=C/C(=O)O[C@@H]2[C@H](C)[C@H](CC1)O[C@]1(CC[C@H](C)[C@H](C[C@@H](C)O)O1)[C@H]2C`, the inhibition result in test [8], in test [10] and in test [11] was “Active” throughout. In addition, in test [9], the inhibition entry is “inactive”.
Consider `N#Cc1cc(Br)ccc1/N=c1\ssnc1Cl`, for which the inhibition in [1] was > 90%.
Take `FC(F)(F)Oc1ccc(/N=c2\ssnc2Cl)cc1`: in test [1], the inhibition was > 90%.
As for `CCS(=O)(=O)N1CC(CC#N)(n2cc(-c3ncnc4[nH]ccc34)cn2)C1`, in test [12], the inhibition entry was “Active”.
With `Cc1cc(Nc2nc(N[C@@H](C)c3ncc(F)cn3)ncc2Cl)[nH]n1`, the inhibition entry in test [13], in test [14], in test [15] and in [16] was “Active” each time.
For the compound `CC(C)[C@H]1CC[C@@]2(CO2)[C@H]2C(=O)OCC(C(=O)O)=C[C@H]12`, the inhibition entry in test [17], in test [18], in test [19], in [20], in test [21] and in test [22] was “Active” in each case.
Consider `N#C/C=N/c1c(SS)c(-c2ccccc2)nn1Cc1ccccc1`, for which the inhibition in [1] is > 90%.
Same read-out and setting: under `Fc1ccc(Cl)cc1/N=c1\ssnc1Cl` stands > 90%.
As for `CCC(=O)N1CCN(c2ccc(-n3c(=O)ccc4cnc5ccc(-c6cnc7ccccc7c6)cc5c43)cc2C(F)(F)F)CC1`, the inhibition entry in test [23], in [24], in test [25], in test [26], in [27] and in [28] was “Active” in each case. The inhibition entry in [29] was “Active”.
As to `O=c1[nH]c2ccccc2n1C1CCN(CCCC(c2ccc(F)cc2)c2ccc(F)cc2)CC1`, the inhibition entry in [30] and in test [31] was “Active” throughout.
For the compound `N#Cc1ccc(Cl)cc1/N=c1\ssnc1Cl`, the inhibition in test [1] is > 90%.
Turning to `CC(C)(C)c1cc(CN(C(=O)CN(Cc2ccc(Cl)cc2)S(=O)(=O)c2c(F)c(F)c(F)c(F)c2F)c2ccc(C(=O)O)cc2)cc(C(C)(C)C)c1`, the inhibition result in test [30] and in [31] was “Active” each time.
